Reference: US20190275012A9, “SUBSTITUTED THIAZOLO-PYRIDINE COMPOUNDS AS MALT1 INHIBITORS” (Lupin Limited, priority 2016, published 2019)

Tests used:
[1] = tested on: NF-kB transcriptional activity in HEK-293-NF-kB-Luc cell line overexpressing MALT1; assay: NF-kB reporter assay (luciferase, MALT1 stably overexpressed); type: cell-based; details: Homo sapiens, 24 h, HEK-293-NF-kB-Luc cells stably overexpressing MALT1, 24 h treatment, Bright Glo luminescence; read-out: NF-kB inhibition IC50
How it was run: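 HEK-293-NF-κB-Luc cells stably overexpressing MALT1 were seeded overnight, then exposed to test compounds for 24 h. Bright Glo added 10 min at ambient temperature and luminescence read; % inhibition calculated against 0.1% DMSO controls.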

OCI-Ly-10 cells = assay: Anticancer assay (14 days), cell viability by CCK-8; type: cell-based; details: Homo sapiens, OCI-Ly10, 336 h, 14 days treatment, fresh treatment every 5th day, CCK-8 viability, read-out: Ly-10 (14d) inhibition IC50
How it was run: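 OCI-Ly-10 cells in IMDM + 20% FBS exposed to compound for 13–15 days, with media and compound refreshed every 5th day. Viability by CCK-8 absorbance at 450 nm (650 nm background); % inhibition versus 0.1% DMSO medium control.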

full length MALT1 enzyme = target: T1, full length MALT1 enzyme (Homo sapiens, UniProt Q9UDY8); assay: MALT1 biochemical assay (fluorescence based, Ac-Leu-Arg-Ser-Arg-AMC cleavage); details: full length MALT1 protein, 2 h pre-incubation at RT, tetrapeptide substrate Ac-Leu-Arg-Ser-Arg-AMC, read-out: Malt 1 inhibition IC50
T1 construct: a fluorescence based assay with full length MALT1 enzyme
T1 sequence (Q9UDY8 1-824): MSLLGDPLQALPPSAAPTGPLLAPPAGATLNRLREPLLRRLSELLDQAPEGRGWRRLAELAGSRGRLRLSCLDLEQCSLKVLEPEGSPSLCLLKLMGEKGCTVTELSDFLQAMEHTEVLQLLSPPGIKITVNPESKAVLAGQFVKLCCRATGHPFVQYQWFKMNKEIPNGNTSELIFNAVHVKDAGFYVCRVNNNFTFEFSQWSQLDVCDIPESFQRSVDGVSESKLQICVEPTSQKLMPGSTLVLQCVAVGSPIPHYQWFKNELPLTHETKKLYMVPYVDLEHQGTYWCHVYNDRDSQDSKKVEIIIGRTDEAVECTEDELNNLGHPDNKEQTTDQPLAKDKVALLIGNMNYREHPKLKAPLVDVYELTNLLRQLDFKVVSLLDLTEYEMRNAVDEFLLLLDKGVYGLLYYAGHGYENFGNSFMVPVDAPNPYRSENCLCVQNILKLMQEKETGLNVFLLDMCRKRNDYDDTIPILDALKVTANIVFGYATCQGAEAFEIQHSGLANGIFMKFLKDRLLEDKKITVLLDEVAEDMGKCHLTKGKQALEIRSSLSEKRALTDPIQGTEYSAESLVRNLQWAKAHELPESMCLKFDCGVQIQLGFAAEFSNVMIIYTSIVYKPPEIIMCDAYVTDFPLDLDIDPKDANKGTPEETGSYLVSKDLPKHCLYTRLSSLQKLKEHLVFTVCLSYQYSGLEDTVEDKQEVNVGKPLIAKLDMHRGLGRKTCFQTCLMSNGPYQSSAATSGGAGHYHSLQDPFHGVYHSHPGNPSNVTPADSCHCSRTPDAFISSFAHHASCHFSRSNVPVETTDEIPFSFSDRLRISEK
How it was run: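 Full-length MALT1 (100-300 ng/well) was pre-incubated with compound for 2 h at RT, then 100 μM Ac-LRSR-AMC was added for 4-12 h. Buffer was 50 mM MES, 150 mM NaCl, 0.1% CHAPS, 1 M ammonium citrate, 10 mM DTT, pH 7, with 0.5% DMSO. IC50 was derived from AMC fluorescence (ex 360/em 460 nm).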

COc1ncc(NC(=O)Nc2cnc3sc(C)nc3c2C2CC2)cc1Cl [Compound 1, 1-(5-Chloro-6-methoxypyridin-3-yl)-3-(7-cyclopropyl-2-methylthiazolo [5,4-b]pyridin-6-yl)urea]
IC50 [1]: 0.001 to 0.1 µM | IC50 (OCI-Ly-10 cells): 0.101 to 0.25 µM | IC50 (full length MALT1 enzyme): 0.001 to 0.05 µM

COc1ccc(NC(=O)Nc2cnc3sc(C)nc3c2C2CC2)cc1Cl [Compound 2, 1-(3-Chloro-4-methoxyphenyl)-3-(7-cyclopropyl-2-methylthiazolo[5,4-b]pyridin-6-yl)urea]
IC50 [1]: 0.501 to 1.5 µM | IC50 (OCI-Ly-10 cells): 0.251 to 0.5 µM | IC50 (full length MALT1 enzyme): 0.001 to 0.05 µM

Cc1nc2c(C3CC3)c(NC(=O)Nc3cnc(-n4nccn4)c(Cl)c3)cnc2s1 [Compound 9, 1-(5-Chloro-6-(2H-1,2,3-triazol-2-yl)pyridin-3-yl)-3-(7-cyclopropyl-2-methylthiazolo[5,4-b]pyridin-6-yl)urea]
IC50 [1]: 0.001 to 0.1 µM | IC50 (OCI-Ly-10 cells): 0.026 to 0.1 µM | IC50 (full length MALT1 enzyme): 0.001 to 0.05 µM

CCc1c(NC(=O)Nc2cnc(OC)c(Cl)c2)cnc2sc(C)nc12 [Compound 26, 1-(5-Chloro-6-methoxypyridin-3-yl)-3-(7-ethyl-2-methylthiazolo[5,4-b]pyridin-6-yl)urea]
IC50 [1]: 0.101 to 0.5 µM | IC50 (OCI-Ly-10 cells): 0.101 to 0.25 µM | IC50 (full length MALT1 enzyme): 0.001 to 0.05 µM

Cc1nc2c(N3CCOCC3)c(NC(=O)Nc3cnc(-n4nccn4)c(Cl)c3)cnc2s1 [Compound 28, 1-(5-Chloro-6-(2H-1,2,3-triazol-2-yl)pyridin-3-yl)-3-(2-methyl-7-morpholinothiazolo[5,4-b]pyridin-6-yl)urea]
IC50 [1]: 0.101 to 0.5 µM | IC50 (OCI-Ly-10 cells): 0.501 to 1.5 µM | IC50 (full length MALT1 enzyme): 0.001 to 0.05 µM

COCCN(c1c(NC(=O)Nc2cnc(-n3nccn3)c(Cl)c2)cnc2sc(C)nc12)C1CC1 [Compound 49, 1-(5-Chloro-6-(2H-1,2,3-triazol-2-yl)pyridin-3-yl)-3-(7-(cyclopropyl(2-methoxyethyl)amino)-2-methylthiazolo[5,4-b]pyridin-6-yl)urea]
IC50 [1]: 0.001 to 0.1 µM | IC50 (OCI-Ly-10 cells): 0.026 to 0.1 µM | IC50 (full length MALT1 enzyme): 0.001 to 0.05 µM

Cc1nc2c(C3=CCCCC3)c(NC(=O)Nc3cnc(-n4nccn4)c(Cl)c3)cnc2s1 [Compound 59, 1-(5-Chloro-6-(2H-1,2,3-triazol-2-yl)pyridin-3-yl)-3-(7-(cyclohex-1-en-1-yl)-2-methylthiazolo[5,4-b]pyridin-6-yl)urea]
IC50 [1]: 0.101 to 0.5 µM | IC50 (OCI-Ly-10 cells): 0.026 to 0.1 µM | IC50 (full length MALT1 enzyme): 0.001 to 0.05 µM

COC(C)(C)c1c(NC(=O)Nc2cnc(-n3nccn3)c(C(F)(F)F)c2)cnc2sc(C)nc12 [Compound 96, 1-(6-(2H-1,2,3-Triazol-2-yl)-5-(trifluoromethyl)pyridin-3-yl)-3-(7-(2-methoxypropan-2-yl)-2-methylthiazolo[5,4-b]pyridin-6-yl)urea]
IC50 [1]: 0.001 to 0.1 µM | IC50 (OCI-Ly-10 cells): 0.0001 to 0.025 µM | IC50 (full length MALT1 enzyme): 0.001 to 0.05 µM

Cc1nc2c(C3(CF)CC3)c(NC(=O)Nc3ccc(-n4nccn4)c(Cl)c3)cnc2s1 [Compound 107, 1-(3-Chloro-4-(2H-1,2,3-triazol-2-yl)phenyl)-3-(7-(1-(fluoromethyl)cyclopropyl)-2-methylthiazolo[5,4-b]pyridin-6-yl)urea]
IC50 [1]: 0.001 to 0.1 µM | IC50 (OCI-Ly-10 cells): 0.101 to 0.25 µM | IC50 (full length MALT1 enzyme): 0.001 to 0.05 µM

Cc1nc2c(C(C)C)c(NC(=O)Nc3cnc(-n4nccn4)c(Cl)c3)cnc2s1 [Compound 115, 1-(5-Chloro-6-(2H-1,2,3-triazol-2-yl)pyridin-3-yl)-3-(7-isopropyl-2-methylthiazolo[5,4-b]pyridin-6-yl)urea]
IC50 [1]: 0.001 to 0.1 µM | IC50 (OCI-Ly-10 cells): 0.026 to 0.1 µM | IC50 (full length MALT1 enzyme): 0.001 to 0.05 µM

COc1ncc(NC(=O)Nc2cnc3sc(C)nc3c2C(C)C)cc1Cl [Compound 119, 1-(5-Chloro-6-methoxypyridin-3-yl)-3-(7-isopropyl-2-methylthiazolo[5,4-b]pyridin-6-yl)urea]
IC50 [1]: 0.101 to 0.5 µM | IC50 (OCI-Ly-10 cells): 0.251 to 0.5 µM | IC50 (full length MALT1 enzyme): 0.001 to 0.05 µM

Cc1nc2c(C3CC3)c(NC(=O)Nc3ccc(-n4nccn4)c(Cl)c3)cnc2s1 [Compound 168, 1-(3-Chloro-4-(2H-1,2,3-triazol-2-yl)phenyl)-3-(7-cyclopropyl-2-methylthiazolo[5,4-b]pyridin-6-yl)urea]
IC50 [1]: 0.501 to 1.5 µM | IC50 (OCI-Ly-10 cells): 0.251 to 0.5 µM | IC50 (full length MALT1 enzyme): 0.001 to 0.05 µM

COc1ncc(Cl)cc1NC(=O)Nc1cnc2sc(C)nc2c1C1CC1 [Compound 192, 1-(5-Chloro-2-methoxypyridin-3-yl)-3-(7-cyclopropyl-2-methylthiazolo[5,4-b]pyridin-6-yl)urea]
IC50 [1]: 0.101 to 0.5 µM | IC50 (OCI-Ly-10 cells): 0.501 to 1.5 µM | IC50 (full length MALT1 enzyme): 0.051 to 0.1 µM

Cc1nc2c(C3(CO)CC3)c(NC(=O)Nc3cnc(-n4nccn4)c(C(F)(F)F)c3)cnc2s1 [Compound 223, 1-(6-(2H-1,2,3-Triazol-2-yl)-5-(trifluoromethyl)pyridin-3-yl)-3-(7-(1-(hydroxymethyl)cyclopropyl)-2-methylthiazolo[5,4-b]pyridin-6-yl)urea]
IC50 [1]: 0.001 to 0.1 µM | IC50 (OCI-Ly-10 cells): 0.251 to 0.5 µM | IC50 (full length MALT1 enzyme): 0.001 to 0.05 µM
